Values of other authors, collected in US20170014380A1, “Vildagliptin Formulation Process Under Inert Gas Atmosphere” (Sanovell IIac Sanayi Ve Ticaret Anonim Sirketi, priority 2014, published 2017).

N#C[C@@H]1CCCN1C(=O)CN[C@@]12C[C@@H]3C[C@@H](CC(O)(C3)C1)C2 [Vildagliptin, (S)-{[(3-hydroxyadamantan-1-yl)amino]acetyl}pyrrolidine-2-carbonitril]
solubility in organic polar solvents (in organic polar solvents): soluble
solubility in water (in water): soluble
